Measured values reported in patent US20240343747A1, “Heteroaryl compounds as inhibitors of TYK2, composition and application thereof” (Accro Bioscience (HK) Limited, priority 2021, published 2024).

Experiments:
TYK2 = TYK2 (Mus musculus (Mouse), UniProt Q9R117); assay: Luciferase assay in L929 ISRE cells stimulated with IFN-α; type: cell-based; settings: IFN-α 100 ng/mL; for inhibition at 0.1 µM: 100 nM, read-out: Inhibitory activity % (100 nM); for inhibition at 1 µM: 1000 nM, read-out: Inhibitory activity % (1000 nM); for inhibition at 0.05 µM: 50 nM, read-out: Inhibitory activity % (50 nM); for inhibition at 0.2 µM: 200 nM, read-out: Inhibitory activity % (200 nM)
Procedure: • 1. L929 ISRE cells (5000 cells/well) were seeded on 96-well plates and incubated overnight at room temperature; • 2. The cells were pretreated by adding different concentrations (10 nM, 50 nM, 100 nM, 200 nM or 1000 nM) of the test compounds for 2 hours; • 3. Added IFN-α (100 ng/mL) to stimulate cells for 6 hours; • 4. Removed the upper medium, add PBS (100 μL) and washed, then removed PBS; • 5. Added PLB lysis solution (50 μL) to each well, shook the well for 15 minutes; • 6. Transferred PLB lysis solution (30 μL) to a new 96-well whiteboard, added LAR II reagent (LAR II), then quickly read the […]; • 7. Added Stop & Glo reagent (30 μL), then read the 450 nm OD value using the plate washer. • 8. The final results in Table 3 were the OD value in step 6/OD value in step 7.

hERG channel = hERG channel (Homo sapiens (Human), UniProt Q12809); assay: cell-based
Procedure: Chinese hamster ovary (CHO) cell line, CHO-hERG cells were used in this study. CHO-hERG cells were derived from Sophion Biosciences Inc. (Ballerup, Denmark) in Suzhou, China. The cell reserve fluid is frozen in liquid nitrogen tanks. Each batch of stored cell fluid is tested for mycoplasma contamination. The cells were no longer used after 30 generations.
The whole cell patch clamp technique was used to record hERG current at room temperature. The patch-clamp amplifier outputs signals through […] conversion and 2.9 KHz low-pass filtering. Data records were collected by Patchmaster Pro software.
Cells were planted in a cell recording tank and placed on an inverted microscope platform. One cell in the recording tank was randomly selected for experiment. The perfusion system was fixed on an inverted microscope platform and cells were continuously irrigated with ECS.
Manual patch clamp recording microelectrode was prepared with capillary glass tube, which was filled with intracellular fluid. On the day of the patch clamp test, the electrodes were prepared using a borosilicate glass tube (GC150TF-10, Harvard Apparatus Co. UK). The resistance is between 2-5 MΩ after the electrode is filled with ICS.
The clamping voltage was −80 mV, and the first step was depolarized to +60 mV for 850 ms to open the hERG channel. The voltage is then set to −50 mV and maintained for 1275 ms, resulting in a rebound current or tail current, the peak of which is measured and used for analysis. Finally, the voltage is restored to the clamping voltage (−80 mV). During the test, the command voltage program was repeated every 15 s.
At the beginning of recording the perfusion of the solvent control working solution, the test substance/positive control working solution to be tested can be poured after monitoring the tail current peak until more than 3 scanning curves are stable, until the inhibition of the test substance/positive control working solution to the hERG current peak reaches a stable state. Generally, the most recent three consecutive peak values of the current curve basically coincide as a criterion to judge whether the state is stable. After reaching a stable state, continue to pour one concentration of the test sample. One or more test subjects/positive controls, or multiple concentrations of the same drug, can be tested on a cell, and the different test subjects/positive controls need to be rinsed with a solvent control working fluid until the hERG current returns to more than 80% of its pre-drug level.
The concentration of positive control cisapride was 0.1 μM, and two cells were repeated.

[1] = Pharmacokinetic evaluation in mice; type: in vivo; settings: for plasma exposure and bioavailability in mice (in words): conclusion from Table 9; for AUC / Vd / clearance / half-life / Cmax / Tmax: male, mouse, plasma; for AUC / Vd / clearance / half-life / Cmax / Tmax / F: mice
Procedure: The mice pharmacokinetic characteristics of compounds were tested by standard protocols. The candidate compounds were made into clear solution for single intravenous injection (i.v.) and suspension for oral administration (p.o.). Intravenous vehicle is 5% DMSO+10% Solutol+85% Saline. Of which adjusts pH to 3 for B37. While oral vehicle is 0.5% CMCNa for B2 and B22, 5% DMSO+10% Solutol+85% Saline, PH˜3 for B37, 5% DMSO+10% Solutol+85% Saline for B41. The experiment used 6 male mice and 3 mice for intravenous at a dose of 2 mg/kg. Plasma samples were collected at 0 h (before dosing) and 0.083 h, 0.25 h, 0.5 h, 1 h, 2 h, 4 h, 8 h, 24 h after dosing. Another 3 mice were orally administrated with a dose of 10 mg/kg. Plasma samples were collected at 0 h (before dosing) and 0.25 h, 0.5 h, 1 h, 2 h, 4 h, 6 h, 8 h, 24 h after dosing.
Blood samples were placed in tubes containing K2-EDTA and stored on ice until centrifuged. The blood samples were centrifuged at 6800 g for 6 minutes at 2-8° C. within 1 h after collected, and stored frozen at approximately −80° C.
The analytical results were confirmed using quality control samples for intra-assay variation. The accuracy of >66.7% of the quality control samples and 50% of all QC samples at each concentration level were between 80-120% of the known value(s).
Standard set of parameters including area under the curve (AUC(0-t) and AUC(0-∞)), elimination half-live (T1/2), maximum plasma concentration (Cmax), time to reach maximum plasma concentration (Tmax) were calculated using noncompartmental analysis modules in FDA certified pharmacokinetic program Phoenix WinNonlin 7.0 (Pharsight, USA) by the Study Director.

Chain of hERG channel (Q12809 whole entry): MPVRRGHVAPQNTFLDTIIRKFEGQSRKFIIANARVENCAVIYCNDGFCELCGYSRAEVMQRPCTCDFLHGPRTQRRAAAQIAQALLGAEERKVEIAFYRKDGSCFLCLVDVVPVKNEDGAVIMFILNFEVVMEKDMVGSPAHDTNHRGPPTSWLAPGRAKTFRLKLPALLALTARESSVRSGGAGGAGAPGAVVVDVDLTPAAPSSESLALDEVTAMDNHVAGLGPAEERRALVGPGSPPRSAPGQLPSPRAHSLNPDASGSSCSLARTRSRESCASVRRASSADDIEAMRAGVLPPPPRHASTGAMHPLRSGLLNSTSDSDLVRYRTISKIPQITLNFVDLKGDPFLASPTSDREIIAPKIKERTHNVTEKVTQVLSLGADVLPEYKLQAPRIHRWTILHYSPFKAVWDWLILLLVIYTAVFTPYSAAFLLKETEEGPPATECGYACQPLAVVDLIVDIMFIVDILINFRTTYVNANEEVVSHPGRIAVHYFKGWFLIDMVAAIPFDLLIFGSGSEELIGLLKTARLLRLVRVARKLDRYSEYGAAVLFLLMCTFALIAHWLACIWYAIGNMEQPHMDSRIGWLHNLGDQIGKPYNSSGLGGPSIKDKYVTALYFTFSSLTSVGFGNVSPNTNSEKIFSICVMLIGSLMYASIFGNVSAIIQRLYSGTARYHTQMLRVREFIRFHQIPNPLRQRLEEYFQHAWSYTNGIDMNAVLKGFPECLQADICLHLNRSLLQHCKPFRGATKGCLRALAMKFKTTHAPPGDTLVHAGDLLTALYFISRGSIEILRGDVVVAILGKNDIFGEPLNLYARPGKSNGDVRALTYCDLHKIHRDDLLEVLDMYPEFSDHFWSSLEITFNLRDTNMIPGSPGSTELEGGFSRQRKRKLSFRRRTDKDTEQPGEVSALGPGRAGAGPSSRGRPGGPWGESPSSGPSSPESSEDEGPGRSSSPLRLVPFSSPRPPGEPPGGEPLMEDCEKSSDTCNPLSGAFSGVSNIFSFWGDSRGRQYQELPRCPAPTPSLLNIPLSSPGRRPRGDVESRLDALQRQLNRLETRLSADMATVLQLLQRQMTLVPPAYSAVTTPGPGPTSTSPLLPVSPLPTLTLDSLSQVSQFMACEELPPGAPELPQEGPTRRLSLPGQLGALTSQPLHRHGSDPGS
Chain of TYK2 (Q9R117 whole entry): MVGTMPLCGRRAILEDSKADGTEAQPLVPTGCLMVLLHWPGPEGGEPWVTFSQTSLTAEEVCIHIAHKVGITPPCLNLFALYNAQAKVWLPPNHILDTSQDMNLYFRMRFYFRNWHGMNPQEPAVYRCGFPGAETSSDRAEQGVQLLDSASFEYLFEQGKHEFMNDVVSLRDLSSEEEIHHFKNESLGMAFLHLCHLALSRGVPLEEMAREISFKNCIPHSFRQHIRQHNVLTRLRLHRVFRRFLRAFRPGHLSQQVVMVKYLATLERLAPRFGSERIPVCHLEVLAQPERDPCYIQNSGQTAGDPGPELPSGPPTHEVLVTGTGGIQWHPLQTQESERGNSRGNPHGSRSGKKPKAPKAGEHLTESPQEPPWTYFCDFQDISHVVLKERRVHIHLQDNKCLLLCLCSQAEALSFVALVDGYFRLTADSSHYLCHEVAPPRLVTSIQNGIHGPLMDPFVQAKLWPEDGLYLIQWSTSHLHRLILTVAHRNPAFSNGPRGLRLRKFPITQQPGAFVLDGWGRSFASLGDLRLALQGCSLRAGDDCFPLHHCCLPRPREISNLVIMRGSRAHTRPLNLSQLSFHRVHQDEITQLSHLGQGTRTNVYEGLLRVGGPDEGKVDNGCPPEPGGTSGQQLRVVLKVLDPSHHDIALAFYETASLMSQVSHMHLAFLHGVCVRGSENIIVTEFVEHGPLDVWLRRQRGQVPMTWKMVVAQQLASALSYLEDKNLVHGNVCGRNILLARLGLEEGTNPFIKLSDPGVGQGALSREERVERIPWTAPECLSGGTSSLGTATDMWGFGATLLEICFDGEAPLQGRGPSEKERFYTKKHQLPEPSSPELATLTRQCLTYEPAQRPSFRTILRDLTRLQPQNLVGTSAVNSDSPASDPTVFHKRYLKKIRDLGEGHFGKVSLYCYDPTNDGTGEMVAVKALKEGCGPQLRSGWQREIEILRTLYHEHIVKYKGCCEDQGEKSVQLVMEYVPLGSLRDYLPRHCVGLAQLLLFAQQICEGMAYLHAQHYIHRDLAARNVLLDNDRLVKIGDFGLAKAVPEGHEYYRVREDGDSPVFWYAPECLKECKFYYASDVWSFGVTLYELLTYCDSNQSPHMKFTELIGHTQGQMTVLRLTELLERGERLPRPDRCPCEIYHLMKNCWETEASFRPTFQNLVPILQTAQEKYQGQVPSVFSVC

Row | inhibition at 0.01 µM (TYK2; 10 nM, read-out: Inhibitory activity % (10 nM)) | inhibition at 0.1 µM (TYK2) | inhibition at 1 µM (TYK2) | plasma exposure and bioavailability in mice (in words) [1] | AUC ([1]; iv, i.v. 2 mg/kg) | Vd ([1]; iv, i.v. 2 mg/kg) | clearance ([1]; iv, i.v. 2 mg/kg) | half-life ([1]; iv, i.v. 2 mg/kg) | AUC ([1]; po, p.o. 10 mg/kg) | Cmax ([1]; po, p.o. 10 mg/kg) | Tmax ([1]; po, p.o. 10 mg/kg) | F ([1]; p.o. 10 mg/kg) | inhibition at 0.05 µM (TYK2) | inhibition at 0.2 µM (TYK2) | Compound | IC50 (hERG channel) | inhibition on hERG channel (in words) (hERG channel)
1 | 45% | 58% | 94% | good plasma exposure and bioavailability | 1940 ng·h/mL | 1.5 L/kg | 17.2 mL/min/kg | 60 min | 4140 ng·h/mL | 1180 ng/mL | 180 min | 43% | – | – | CCC(=O)c1cnc(NC(=O)C2CC2)cc1Nc1cccc(-c2cc(P(C)(C)=O)n(C)n2)c1OC [Compound B2, N-(4-((3-(5-(dimethylphosphoryl)-1-methyl-1H-pyrazol-3-yl)-2-methoxyphenyl)amino)-5-propionylpyridin-2-yl)cyclopropanecarboxamide] | > 30 µM | no inhibition
2 | – | 43% | 83% | good plasma exposure and bioavailability | 1350 ng·h/mL | 3.1 L/kg | 25.4 mL/min/kg | 84 min | 6370 ng·h/mL | 2630 ng/mL | 19.8 min | 94% | – | – | [2H]C([2H])([2H])n1nc(-c2cccc(Nc3cc(NC(=O)C4CC4)ncc3C(=O)CC)c2OC)cc1P(C)(C)=O [Compound B22] | > 30 µM | no inhibition
3 | – | – | 97% | good plasma exposure and bioavailability | 2160 ng·h/mL | 0.84 L/kg | 15.5 mL/min/kg | 37.8 min | 8420 ng·h/mL | 4250 ng/mL | 25.2 min | 78% | 89% | 95% | CCC(=O)c1cnc(NC(=O)C2CC2)cc1Nc1cccc(-c2cc(P(=O)(C3CC3)C3CC3)n(C)n2)c1OC [Compound B37, N-(4-((3-(5-(dicyclopropylphosphoryl)-1-methyl-1H-pyrazol-3-yl)-2-methoxyphenyl)amino)-5-propionylpyridin-2-yl)cyclopropanecarboxamide] | > 30 µM | no inhibition
4 | – | – | 97% | good plasma exposure and bioavailability | 2670 ng·h/mL | 1.2 L/kg | 12.7 mL/min/kg | 66 min | 11900 ng·h/mL | 6560 ng/mL | 30 min | 89% | 86% | 92% | [2H]C([2H])([2H])NC(=O)c1nnc(NC(=O)C2CC2)cc1Nc1cccc(-c2cc(P(=O)(C3CC3)C3CC3)n(C)n2)c1OC [Compound B41, 6-(cyclopropanecarboxamido)-4-((3-(5-(dicyclopropylphosphoryl)-1-methyl-1H-pyrazol-3-yl)-2-methoxyphenyl)amino)-N-(methyl-d3)pyridazine-3-carboxamide] | > 30 µM | no inhibition
